Data on eleven compounds can be found in ChEMBL document CHEMBL1201862, “PubChem BioAssay data set” (2004).

Test [1] concerns the target T1, Voltage-gated N-type calcium channel alpha-1B subunit/Amyloid beta A4 precursor protein-binding family A member 1 (Homo sapiens, UniProt Q00975+Q02410). Format: protein assay.
Test [2] has as its target T2, Orexin/Hypocretin receptor type 1 (Homo sapiens, UniProt O43613).
T2 sequence (O43613 whole entry): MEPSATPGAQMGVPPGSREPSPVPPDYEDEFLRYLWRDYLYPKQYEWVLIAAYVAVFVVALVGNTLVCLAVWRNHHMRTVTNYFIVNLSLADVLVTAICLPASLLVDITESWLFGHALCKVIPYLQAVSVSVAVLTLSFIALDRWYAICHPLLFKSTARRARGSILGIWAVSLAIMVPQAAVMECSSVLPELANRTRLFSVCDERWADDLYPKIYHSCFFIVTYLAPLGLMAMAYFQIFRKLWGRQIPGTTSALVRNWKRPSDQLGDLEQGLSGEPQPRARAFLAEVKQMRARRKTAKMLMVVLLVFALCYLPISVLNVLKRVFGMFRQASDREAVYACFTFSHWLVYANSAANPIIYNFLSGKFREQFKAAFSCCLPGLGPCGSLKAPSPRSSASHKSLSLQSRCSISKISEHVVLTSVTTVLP
The experiment in a line: Fluorescence-based cell-based high throughput dose response assay for antagonists of the orexin 1 receptor (OX1R; HCRTR1). [Related pubchem assays (depositor defined):AID434989, AID435008, AID463079, AID485270, AID492963, AID492964, AID492965, AID493232, AID504717, AID504718]. It counts as functional.

For test [3], the target named is T3, Orexin receptor type 2 (Homo sapiens, UniProt O43614).
T3 sequence (O43614 whole entry): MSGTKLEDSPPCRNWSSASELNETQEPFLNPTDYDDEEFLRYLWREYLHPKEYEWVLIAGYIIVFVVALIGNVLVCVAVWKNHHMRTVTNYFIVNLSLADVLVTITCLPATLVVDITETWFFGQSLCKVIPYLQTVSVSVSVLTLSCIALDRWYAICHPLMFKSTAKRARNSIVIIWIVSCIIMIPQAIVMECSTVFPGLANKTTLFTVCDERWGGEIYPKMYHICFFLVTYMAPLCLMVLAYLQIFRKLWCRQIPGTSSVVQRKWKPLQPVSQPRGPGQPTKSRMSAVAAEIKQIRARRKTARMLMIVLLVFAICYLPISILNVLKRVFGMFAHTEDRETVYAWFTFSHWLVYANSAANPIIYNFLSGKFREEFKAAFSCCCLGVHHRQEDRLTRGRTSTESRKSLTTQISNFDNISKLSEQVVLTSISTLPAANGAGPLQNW
The experiment in a line: Counterscreen assay for antagonists of the orexin 1 receptor (OX1R; HCRTR1): Fluorescence-based cell-based dose response assay for antagonists of the orexin 2 receptor (OX2R; HCRTR2), run by assay provider. It counts as functional.

A further test relates to CHO-K1. The experiment in a line: Counterscreen for antagonists of the orexin 1 receptor (OX1R; HCRTR1): Homogeneous time resolved fluorescence (HTRF)-based cell-based dose response assay to identify antagonists of the parental CHO-K1 cell line. [Related pubchem assays (depositor defined):AID434989, AID435008, AID463079, AID485270, AID492963, AID492964, AID492965, AID493232, AID504699, AID504701]. Format: functional. As to conditions: Cricetulus griseus. (In general: Counterscreens check selectivity or assay interference.)

Test [4] concerns the target T1, Voltage-gated N-type calcium channel alpha-1B subunit/Amyloid beta A4 precursor protein-binding family A member 1. Format: protein assay. The source holds these as a separate data set.
A further test concerns the target Trypsin (Sus scrofa, UniProt P00761). The experiment in a line: trypsin protease activity blockade – biochemical, quenched peptide fluorescence, cherry-pick, selectivity assay for Rce1 protease inhibitor project, dose response (AID 488789).
Test [5] deals with T2, Orexin/Hypocretin receptor type 1. Kind of test: Homogeneous Time Resolved Fluorescence (HTRF)-based cell-based high throughput dose response assay for antagonists of the orexin 1 receptor (OX1R; HCRTR1). [Related pubchem assays (depositor defined):AID434989, AID435008, AID463079, AID485270, AID492963, AID492964, AID492965, AID493232, AID504717, AID504718]. Format: functional.

Test [6] concerns the target T3, Orexin receptor type 2. Kind of test: Counterscreen assay for antagonists of the orexin 1 receptor (OX1R; HCRTR1): Homogeneous Time Resolved Fluorescence (HTRF)-based cell-based dose response assay for antagonists of the orexin 2 receptor (OX2R; HCRTR2), run by assay provider. It counts as functional.
Test [7] is described as follows: Counterscreen for antagonists of the orexin 1 receptor (OX1R; HCRTR1): Fluorescence-based cell-based high throughput dose response assay to identify antagonists of the parental CHO cell line. [Related pubchem assays (depositor defined):AID434989, AID435008, AID463079, AID485270, AID492963, AID492964, AID492965, AID493232, AID504699, AID504701]. Format: functional.

For test [8], the target named is T4, High affinity choline transporter 1 (Homo sapiens, UniProt Q9GZV3).
T4 sequence (Q9GZV3 whole entry): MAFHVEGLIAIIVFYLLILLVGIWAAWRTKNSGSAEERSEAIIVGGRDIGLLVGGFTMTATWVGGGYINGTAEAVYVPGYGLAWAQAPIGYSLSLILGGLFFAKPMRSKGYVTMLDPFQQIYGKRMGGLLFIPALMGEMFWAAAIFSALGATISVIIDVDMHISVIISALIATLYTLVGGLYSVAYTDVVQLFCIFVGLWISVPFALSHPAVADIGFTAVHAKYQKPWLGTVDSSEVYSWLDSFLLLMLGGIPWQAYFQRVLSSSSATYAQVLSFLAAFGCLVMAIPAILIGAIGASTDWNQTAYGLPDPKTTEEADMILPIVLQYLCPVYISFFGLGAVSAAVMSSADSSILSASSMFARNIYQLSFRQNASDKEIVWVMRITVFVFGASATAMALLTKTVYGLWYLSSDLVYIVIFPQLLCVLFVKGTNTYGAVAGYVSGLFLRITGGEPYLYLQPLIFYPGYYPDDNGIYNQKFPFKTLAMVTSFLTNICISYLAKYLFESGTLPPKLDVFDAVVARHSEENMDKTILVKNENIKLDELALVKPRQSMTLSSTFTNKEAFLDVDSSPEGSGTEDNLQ
The experiment in a line: human choline transporter blockers, potency – cell-based, 10-point CRC, membrane potential dye, dose response (AID 588401).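 Also: membrane potential dye fluorescence of choline-evoked depolarization via CHT.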 Format: functional.

The target of test [9] is T4, High affinity choline transporter 1. The experiment in a line: human choline transporter blockers, potency – cell-based, 5-point CRC, membrane potential dye, dose response (AID 504840). It counts as functional.
Test [10] concerns the target T5, Polyadenylate-binding protein 1 (Homo sapiens, UniProt P11940). The experiment in a line: MLLE binding blockers, Cy5 peptide tracer – biochemical, fluorescence polarization, Cy5-PAM2 peptide, secondary, miRNA deadenylation inhibitor project, dose response (AID 602260). It counts as functional. As to conditions: read-out: IC50_Mean.
Test [11] addresses Mitochondrial peptide methionine sulfoxide reductase (Bos taurus, UniProt P54149). Kind of test: Absorbance-based biochemical high throughput dose response assay for activators of Methionine sulfoxide reductase A (MsrA). Format: functional.
Test [12] has as its target T5, Polyadenylate-binding protein 1. Kind of test: MLLE domain peptide-binding blockers, IC50 – biochemical, fluorescence polarization, FITC-PAM2 peptide, dose response (AID 602259). It counts as functional. The following applies: read-out: IC50_Mean. In general terms: In fluorescence polarisation assays a small probe gives low polarisation when free and higher when bound to something large.

Test [13] is described as follows: bead-based luminescence quenchers, dual-tagged ARNT – biochemical, AlphaScreen, cherry-pick, artefact control for ARNT-TACC3 interaction inhibitor project, dose response (AID 651705).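 Also: AlphaScreen bead proximity signal that flags compounds interfering with the detection technology; potency reflects signal decrease which marks the compound as an assay artifact.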 Format: functional. Background: Alpha assays give light when donor and acceptor beads are brought close together.
Another test concerns the target Nonstructural protein 1 (Influenza A virus, UniProt Q194T2). It counts as functional, Influenza A virus (A/California/07/2009(H1N1)).
The target in test [14] is Potassium voltage-gated channel subfamily KQT member 2 (Rattus norvegicus, UniProt O88943). The experiment in a line: blockers of KCNQ2 channel current – cell-based, automated electrophysiology, set II, rat KCNQ2, dose response (AID 588637). Format: functional.
The target in another test is Melanocortin receptor 4 (Homo sapiens, UniProt P32245). Format: functional, cell-based.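 Also: Cell-based assay with luminescence read-out, confirmatory dose-response testing for agonist activity of biased ligands at MC4R; human U2OS cells with tagged receptor and beta-arrestin; potency of agonists that increase receptor coupling to beta-arrestin.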
Chain of Melanocortin receptor 4 (P32245 whole entry): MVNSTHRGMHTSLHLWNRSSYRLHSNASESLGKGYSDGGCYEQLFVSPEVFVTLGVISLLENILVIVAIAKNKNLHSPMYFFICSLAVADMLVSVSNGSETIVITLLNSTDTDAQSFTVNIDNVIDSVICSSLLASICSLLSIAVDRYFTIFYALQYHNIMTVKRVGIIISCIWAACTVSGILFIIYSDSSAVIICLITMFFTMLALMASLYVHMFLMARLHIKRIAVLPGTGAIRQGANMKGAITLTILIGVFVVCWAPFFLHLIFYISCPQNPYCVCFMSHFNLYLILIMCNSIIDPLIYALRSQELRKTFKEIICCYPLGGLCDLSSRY
The target in test [15] is T6, Neuropeptides B/W receptor type 1 (Homo sapiens, UniProt P48145).
T6 sequence (P48145 whole entry): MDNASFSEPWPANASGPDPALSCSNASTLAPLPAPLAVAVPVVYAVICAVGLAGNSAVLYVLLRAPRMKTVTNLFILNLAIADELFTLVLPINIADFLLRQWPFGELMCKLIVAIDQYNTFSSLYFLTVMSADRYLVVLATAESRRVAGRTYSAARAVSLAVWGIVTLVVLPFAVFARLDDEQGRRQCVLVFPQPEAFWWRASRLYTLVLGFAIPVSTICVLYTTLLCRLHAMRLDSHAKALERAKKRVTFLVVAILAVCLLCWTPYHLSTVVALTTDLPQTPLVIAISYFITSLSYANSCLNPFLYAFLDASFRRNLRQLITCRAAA
Kind of test: human NPBW1 receptor blockade, IC50 – cell-based, fluorescence, dose response, set 6, late-stage follow-up (AID 588583). It counts as functional.

Test [16] has as its target Melanin-concentrating hormone receptor 1 (Homo sapiens, UniProt Q99705). Kind of test: Late-stage fluorescence-based counterscreen for antagonists of the G-protein coupled receptor 7 (GPR7): cell-based dose response assay to identify antagonists of the melanin-concentrating hormone receptor 1 (MCHR1) Set 6. It counts as functional.
The target of test [17] is Heat shock protein HSP 90-alpha (Homo sapiens, UniProt P07900). Format: functional, organism-based.
A short description of test [18]: viability of uninfected HEp-2 cells – cell-based, HTS, cytotoxicity control for RSV inhibitor project, dose response (AID 2410). Format: functional. As to conditions: human respiratory syncytial virus.
For test [19], the target named is Aryl hydrocarbon receptor (Homo sapiens, UniProt P35869). The following applies: Potency.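 Also: confirmatory quantitative high-throughput screen measuring activation of the AhR signaling pathway.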

Calls of active or inactive are those of the source.

T5 sequence (P11940 whole entry): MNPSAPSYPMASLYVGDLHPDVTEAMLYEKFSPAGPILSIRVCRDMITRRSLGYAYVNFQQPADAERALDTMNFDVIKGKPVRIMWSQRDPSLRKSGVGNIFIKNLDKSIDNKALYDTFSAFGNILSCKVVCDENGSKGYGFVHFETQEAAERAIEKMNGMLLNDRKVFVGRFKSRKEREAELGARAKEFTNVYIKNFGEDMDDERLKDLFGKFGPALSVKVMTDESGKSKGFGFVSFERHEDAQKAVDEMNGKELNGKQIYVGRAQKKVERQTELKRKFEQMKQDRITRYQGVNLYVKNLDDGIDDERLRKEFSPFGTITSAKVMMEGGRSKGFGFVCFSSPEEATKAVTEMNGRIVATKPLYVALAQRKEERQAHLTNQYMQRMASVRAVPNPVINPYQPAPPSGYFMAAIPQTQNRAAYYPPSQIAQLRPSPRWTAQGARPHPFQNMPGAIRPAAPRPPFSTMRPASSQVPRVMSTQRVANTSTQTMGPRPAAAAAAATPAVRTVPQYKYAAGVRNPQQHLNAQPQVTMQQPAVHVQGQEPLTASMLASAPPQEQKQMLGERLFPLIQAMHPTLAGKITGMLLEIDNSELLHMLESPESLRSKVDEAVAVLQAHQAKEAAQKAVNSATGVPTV
T1 sequence (Q00975 whole entry): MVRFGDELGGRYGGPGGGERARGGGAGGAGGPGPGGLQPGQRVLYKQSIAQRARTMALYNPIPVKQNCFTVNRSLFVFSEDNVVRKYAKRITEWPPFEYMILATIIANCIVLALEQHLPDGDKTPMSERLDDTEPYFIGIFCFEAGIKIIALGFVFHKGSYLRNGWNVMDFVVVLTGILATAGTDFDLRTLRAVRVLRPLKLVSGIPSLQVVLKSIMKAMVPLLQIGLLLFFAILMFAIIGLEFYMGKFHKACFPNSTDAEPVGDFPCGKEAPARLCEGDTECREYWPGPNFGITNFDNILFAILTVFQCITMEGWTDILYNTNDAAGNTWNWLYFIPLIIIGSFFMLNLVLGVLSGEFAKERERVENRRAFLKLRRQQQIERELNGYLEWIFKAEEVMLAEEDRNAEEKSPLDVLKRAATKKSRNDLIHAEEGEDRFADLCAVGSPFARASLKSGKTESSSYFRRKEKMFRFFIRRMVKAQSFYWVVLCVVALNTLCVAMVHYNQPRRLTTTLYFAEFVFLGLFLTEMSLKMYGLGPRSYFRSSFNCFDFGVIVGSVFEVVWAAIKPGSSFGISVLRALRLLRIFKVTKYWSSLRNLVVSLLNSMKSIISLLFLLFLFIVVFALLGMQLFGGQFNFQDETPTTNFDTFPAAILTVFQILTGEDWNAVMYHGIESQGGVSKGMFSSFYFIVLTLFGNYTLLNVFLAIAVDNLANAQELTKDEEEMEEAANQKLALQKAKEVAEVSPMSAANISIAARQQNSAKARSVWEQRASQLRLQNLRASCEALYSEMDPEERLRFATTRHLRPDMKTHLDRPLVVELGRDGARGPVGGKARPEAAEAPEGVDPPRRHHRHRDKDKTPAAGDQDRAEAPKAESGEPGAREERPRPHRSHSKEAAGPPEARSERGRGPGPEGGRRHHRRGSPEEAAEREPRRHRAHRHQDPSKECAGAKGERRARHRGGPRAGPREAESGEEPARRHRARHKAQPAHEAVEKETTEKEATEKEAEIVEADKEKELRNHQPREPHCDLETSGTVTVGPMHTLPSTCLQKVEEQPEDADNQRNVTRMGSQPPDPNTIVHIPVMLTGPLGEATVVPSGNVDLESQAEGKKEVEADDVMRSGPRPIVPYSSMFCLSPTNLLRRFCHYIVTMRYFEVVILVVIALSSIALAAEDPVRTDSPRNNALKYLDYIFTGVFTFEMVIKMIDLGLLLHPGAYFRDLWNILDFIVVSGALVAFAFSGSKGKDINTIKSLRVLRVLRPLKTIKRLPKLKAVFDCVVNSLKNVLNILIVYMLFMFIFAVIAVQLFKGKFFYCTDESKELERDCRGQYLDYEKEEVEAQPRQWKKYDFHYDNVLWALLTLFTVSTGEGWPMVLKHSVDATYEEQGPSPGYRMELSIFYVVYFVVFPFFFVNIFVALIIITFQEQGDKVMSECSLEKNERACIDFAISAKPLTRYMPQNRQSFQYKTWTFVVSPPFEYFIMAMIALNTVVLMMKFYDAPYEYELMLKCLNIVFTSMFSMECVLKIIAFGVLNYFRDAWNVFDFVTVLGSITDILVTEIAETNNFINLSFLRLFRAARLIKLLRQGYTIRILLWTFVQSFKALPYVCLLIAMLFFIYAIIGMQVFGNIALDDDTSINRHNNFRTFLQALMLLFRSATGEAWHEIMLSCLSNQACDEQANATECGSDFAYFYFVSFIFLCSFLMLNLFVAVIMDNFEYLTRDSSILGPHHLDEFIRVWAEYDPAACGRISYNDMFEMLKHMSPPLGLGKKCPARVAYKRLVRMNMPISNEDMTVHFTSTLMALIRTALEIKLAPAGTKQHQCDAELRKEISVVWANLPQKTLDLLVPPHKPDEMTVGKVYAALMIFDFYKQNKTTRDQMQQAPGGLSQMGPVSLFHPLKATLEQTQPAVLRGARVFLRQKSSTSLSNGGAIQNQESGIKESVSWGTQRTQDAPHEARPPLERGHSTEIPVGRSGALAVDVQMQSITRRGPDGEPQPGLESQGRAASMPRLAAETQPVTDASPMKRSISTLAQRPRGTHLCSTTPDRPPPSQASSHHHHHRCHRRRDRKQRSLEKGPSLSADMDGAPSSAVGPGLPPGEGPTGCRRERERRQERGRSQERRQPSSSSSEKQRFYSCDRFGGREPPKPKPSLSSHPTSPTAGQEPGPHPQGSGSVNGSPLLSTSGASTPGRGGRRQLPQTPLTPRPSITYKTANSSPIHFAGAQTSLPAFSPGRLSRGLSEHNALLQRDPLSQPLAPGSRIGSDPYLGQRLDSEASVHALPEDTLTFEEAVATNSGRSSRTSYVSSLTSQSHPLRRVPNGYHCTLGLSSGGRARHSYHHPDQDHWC
T1 sequence (Q02410 whole entry): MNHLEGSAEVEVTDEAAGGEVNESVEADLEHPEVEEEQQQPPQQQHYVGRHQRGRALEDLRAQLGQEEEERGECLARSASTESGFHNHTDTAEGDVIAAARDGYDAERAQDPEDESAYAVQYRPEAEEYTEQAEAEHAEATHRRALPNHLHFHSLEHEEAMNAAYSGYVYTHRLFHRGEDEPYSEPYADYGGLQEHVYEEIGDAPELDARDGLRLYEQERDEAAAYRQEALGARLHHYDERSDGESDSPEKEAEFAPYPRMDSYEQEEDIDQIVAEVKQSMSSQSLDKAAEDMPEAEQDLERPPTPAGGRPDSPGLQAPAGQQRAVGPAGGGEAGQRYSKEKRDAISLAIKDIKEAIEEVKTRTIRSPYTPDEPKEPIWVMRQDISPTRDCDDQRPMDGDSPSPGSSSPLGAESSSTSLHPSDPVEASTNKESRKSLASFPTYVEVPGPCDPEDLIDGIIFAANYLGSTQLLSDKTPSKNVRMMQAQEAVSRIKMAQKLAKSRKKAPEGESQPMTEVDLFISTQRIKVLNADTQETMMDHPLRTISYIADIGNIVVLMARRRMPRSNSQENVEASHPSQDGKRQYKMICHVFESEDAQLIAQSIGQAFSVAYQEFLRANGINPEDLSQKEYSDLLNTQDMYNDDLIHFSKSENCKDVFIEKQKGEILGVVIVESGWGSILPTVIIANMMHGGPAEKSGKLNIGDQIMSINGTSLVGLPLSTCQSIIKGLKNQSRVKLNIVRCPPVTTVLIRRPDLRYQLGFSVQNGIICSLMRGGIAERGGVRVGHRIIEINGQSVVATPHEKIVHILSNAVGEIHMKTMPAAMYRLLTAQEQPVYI
Chain of Melanin-concentrating hormone receptor 1 (Q99705 whole entry): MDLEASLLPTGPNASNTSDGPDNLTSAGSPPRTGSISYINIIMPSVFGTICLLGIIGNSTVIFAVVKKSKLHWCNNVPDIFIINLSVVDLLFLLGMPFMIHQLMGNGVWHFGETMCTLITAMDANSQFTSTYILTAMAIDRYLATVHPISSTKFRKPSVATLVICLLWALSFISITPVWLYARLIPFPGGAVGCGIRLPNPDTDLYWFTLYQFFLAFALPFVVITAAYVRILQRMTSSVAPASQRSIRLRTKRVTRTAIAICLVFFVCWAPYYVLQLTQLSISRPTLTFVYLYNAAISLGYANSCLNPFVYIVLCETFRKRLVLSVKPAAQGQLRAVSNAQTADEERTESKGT
Chain of Nonstructural protein 1 (Q194T2 whole entry): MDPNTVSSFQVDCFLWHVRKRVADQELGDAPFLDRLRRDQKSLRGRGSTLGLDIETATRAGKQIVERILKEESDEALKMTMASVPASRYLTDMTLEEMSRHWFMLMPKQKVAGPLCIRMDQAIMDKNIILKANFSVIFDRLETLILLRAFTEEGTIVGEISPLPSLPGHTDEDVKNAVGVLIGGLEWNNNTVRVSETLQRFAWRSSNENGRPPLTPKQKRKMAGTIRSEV
Chain of Mitochondrial peptide methionine sulfoxide reductase (P54149 whole entry, the tested form may be a part): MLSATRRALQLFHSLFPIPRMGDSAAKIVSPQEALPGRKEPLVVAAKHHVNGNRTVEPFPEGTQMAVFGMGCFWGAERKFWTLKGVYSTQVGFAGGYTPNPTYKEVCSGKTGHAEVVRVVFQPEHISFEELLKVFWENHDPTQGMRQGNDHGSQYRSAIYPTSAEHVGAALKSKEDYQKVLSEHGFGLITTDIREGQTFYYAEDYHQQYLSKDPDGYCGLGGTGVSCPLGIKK

Usually AC50 stands for the concentration giving half of the maximal activity seen. On to `O=C(CN1C(=O)/C(=C\c2cccc(Br)c2)Oc2ccccc21)NCC1CCCO1` (stereo not drawn), for which the IC50 was > 50 µM (inactive) in test [1]; 1.08 µM (active) in test [2]; > 88.8 µM (inactive) on Orexin receptor type 2 [3]; > 66.2 µM (inactive) in the test with CHO-K1; 4.98 µM (active) in test [4]; 0.314 µM (active) in [5]. For the same compound, the IC50 on Orexin receptor type 2 [6] was > 50 µM (inactive); in test [7] it was > 49.8 µM (inactive). Moreover, the AC50 at Trypsin was 4.3 µM (active).

As for `O=C(CSc1c2c(nc3ccc(Cl)cc13)CCCC2)NCCCN1CCOCC1`, the IC50 was 4.47 µM (active) in test [8] and 4.29 µM (active) in [9].

By EC50 is commonly meant the concentration at which the effect is half-maximal. In the case of `CC(C)CNc1nc(S)nc(N(C)C)n1`, the IC50 in test [10] and in test [12] was > 66 µM (inactive) each time. Besides, the EC50 in [11] was > 104 µM (inactive).

For `O=C(COC(=O)c1ccccn1)c1cccc(Br)c1`, in test [13], the AC50 was 91 µM (active). Further, the IC50 at Nonstructural protein 1 was 25.6 µM (active).

Turning to `COc1ccccc1CC(=O)NC1CCCc2ccccc21` (stereo not drawn), the IC50 in test [14] was 9.28 µM (active).

Consider `Cc1cccc(NC(=O)[C@@H]2CCCN2S(=O)(=O)c2ccc(Cl)cc2)c1`, for which the IC50 in test [2] is 4.23 µM (active); on Orexin receptor type 2 [3], 1.4 µM (active); with CHO-K1, > 66.2 µM (inactive); in test [5], 0.153 µM (active); on Orexin receptor type 2 [6], 0.37 µM (active); in test [7], > 49.7 µM (inactive).

In the case of `O=C(NC(c1ccccc1)c1ccc2ccccc2n1)C1CCN(CCOc2ccc(Cl)cc2Cl)CC1` (stereo not drawn), the EC50 on Melanocortin receptor 4 was > 89.2 µM (inactive).

Take `COc1ccc(Oc2c(CCl)cnn(Cc3cccc4ccccc34)c2=O)cc1`: the IC50 in test [15] and in test [16] was 2.87 µM (active) each time.

In general, CC50 refers to the concentration at which the toxic effect on the cells reaches its halfway point. Turning to `Oc1c(Br)cc(Br)cc1/C=N\c1cccnc1`, the AC50 in [17] is 3.09 µM (active). The results for the IC50 in test [8] and in [9] were 2.99 µM (active) and 4.37 µM (active), respectively. The CC50 in test [18] is 17.3 µM (active).

On to `N#CCc1c(Cl)cnn(Cc2cccc3ccccc23)c1=O`, for which the IC50 in [15] and in [16] was 2.69 µM (active) each time.

Consider `O=[N+]([O-])Nc1nccn1Cc1ccc(Cl)nc1` [DEHYDROIMIDACLOPRID], for which the AC50 in test [19] was 39.8 µM (inconclusive).
